Patent US9611246B2, “Compositions, apparatus, systems, and methods for resolving electronic excited states” (HALLSTAR INNOVATIONS CORP., priority 2012, dated 2017)

What was measured:
Type in all cases: physicochemical
[1] = Protoporphyrin IX fluorescence lifetime quenching (singlet excited state); settings: for bimolecular quenching rate constant for singlet excited state quenching (in words) / Singlet Quenching Rate Constant: PPIX; for Singlet Quenching Rate Constant: acetonitrile solutions at room temperature
Protocol: Fluorescence lifetime measurements are a convenient way to measure singlet state quenching by stabilizers. Protoporphyrin IX decay traces were recorded in the absence and presence of compound I(a)(1) and alkoxy […] (FIG. 3). […] The collected data shown in FIG. 3 were used to determine the bimolecular quenching rate constant for singlet excited state quenching by the compounds. The quenching rate constant may be directly extracted from the slope of the plot of the inverse fluorescence lifetime vs. the concentration of the two compounds (FIG. 4). […] The biomolecular quenching rate constants for singlet excited state (kq^S) and triplet excited state (kq^T) quenching of PPIX by stabilizers in acetonitrile solutions at room temperature is shown in Table 4, as well and the Stern-Volmer rate constants.

[2] = Protoporphyrin IX triplet state quenching by laser flash photolysis; settings: for Triplet Quenching Rate Constant: PPIX, acetonitrile solutions at room temperature
Protocol: To investigate if triplet states of protoporphyrin IX are quenched by the two compounds, laser flash photolysis experiments were performed. In these experiments, a deoxygenated acetonitrile solution of protoporphyrin IX is excited with short laser pulses from a Nd-YAG laser (355 nm, 5 ns pulse width). Difference absorption kinetic traces were recorded at different observation wavelengths (300 to 800 nm) and from these a transient absorption spectrum was constructed (FIG. 5A). […] In addition, two bands are observed at 320 and 440 nm, which are assigned to the triplet-triplet absorption of protoporphyrin IX. […] Triplet absorption kinetics at 440 nm may be utilized to obtain triplet quenching rate constants by the stabilizers. Triplet decay traces at 440 nm were recorded in the presence of different amounts of the alkoxy […], Formulas […])(1), and the mixture of II(b)(1) and II(c)(1). The decay traces were fitted to a first-order kinetics. The plot of these pseudo-first-order rate constants (inverse decay lifetime) vs. the concentration of the two compounds gives directly the bimolecular triplet quenching rate constant from the slope (FIG. 6). The biomolecular quenching rate constants for singlet excited state (kq^S) and triplet excited state (kq^T) quenching of PPIX by stabilizers in acetonitrile solutions at room temperature is shown in Table 4, as well and the Stern-Volmer rate constants.

[3] = Luminescence experiments in ethanol (room temperature and 77 K matrix)
Protocol: Because Formula II(a)(1) contains a ketone functionality, intersystem crossing into the triplet state could be promoted after photoexcitation due to spin-orbit coupling. Stabilizer triplet states could generate singlet oxygen. Low-temperature luminescence experiments in a ethanol matrix at 77 K were performed in search for phosphorescence of potential triplet states.
The quenching mechanism of protoporphyrin IX singlet excited states and triplet states by the compound of Formulas I, II, and III may be further clarified. A simple energy transfer mechanism would depend on the singlet and triplet energies of compounds of Formula I and protoporphyrin IX. To get information on excited state energies of the stabilizer, luminescence experiments were performed. […] However, weak luminescence was observed of the compound of Formula I(a)(1) in a frozen ethanol matrix at 77 K. The luminescence with maximum at 575 nm (FIG. 7c) originates from the compound of Formula I(a)(1), because the luminescence excitation spectrum (FIG. 7b) matches well the absorption spectrum of the compound of Formula I(a)(1) (FIG. 5a). The luminescence lifetime could not be determined, because of the weak signal intensity. […] If the luminescence at 575 nm is the fluorescence, then the Stoke's shift is unusually large. Independent of the assignment of the luminescence to the fluorescence or phosphorescence, this excited state energy is higher than singlet and triplet energies of protoporphyrin IX and rules out a simple energy transfer quenching mechanism. Another possible quenching mechanism is electron transfer quenching which would depend on the redox potentials of the protoporphyrin and the two quencher compounds.

[4] = Stern-Volmer analysis of singlet oxygen suppression
Text: The singlet oxygen phosphorescence intensity in the absence of the compound of Formulas I(a)(1), II(a)(1), II(d)(1), II(e)(1), or a mixture of II(b)(1) and II(c)(1) (I0) divided by the singlet oxygen phosphorescence intensity in the presence of compounds of Formula I/II(I) was plotted against the Formula I/II concentration (FIG. 16). From the slope of these plots (Stern-Volmer constant) and the lifetime of the quenched excited state, the bimolecular quenching constant can be extracted. If the excited state, which is quenched by the compound of Formula I(a)(1) (which causes a reduction in singlet oxygen production) is the singlet excited state of protoporphyrin IX then, using the previously measured fluorescence lifetime in acetonitrile (if =12.7 ns) a quenching rate constant of 2.4×10^9 M^−1 s^−1 is estimated. […] The rate constant derived from singlet oxygen phosphorescence quenching (FIG. 16) is only half of the more directly derived rate constant from fluorescence quenching, which could be caused by the difference in solvents or by some contribution of protoporphyrin triplet quenching by the compound of Formula I(a)(1). […] This rate constant is 5 times higher than the directly measured rate constant by laser flash photolysis (6.1×10^6 M^−1 s^−1). […] It must be noted that protoporphyrin IX triplet lifetime of ˜1 μs in air saturated DMSO was only estimated based on the directly measured triplet lifetime in air saturated acetonitrile and considering the different oxygen concentration in DMSO compared to acetonitrile. If necessary, the protoporphyrin IX triplet lifetime in air saturated DMSO can easily be measured by laser flash photolysis. The complex reaction mechanism is summarized in Scheme 1 (FIG. 17).
The biomolecular quenching rate constants for singlet excited state (kq^S) and triplet excited state (kq^T) quenching of PPIX by stabilizers in acetonitrile solutions at room temperature is shown in Table 4, as well and the Stern-Volmer rate constants.
Stern-Volmer constants are in direct correlation with the singlet oxygen suppression efficiency. Table 4 (above) summarizes the Stern-Volmer constants and PPIX singlet and triplet state quenching rate constants. Three different ranges of Stern-Volmer constants were observed. […] For compounds I(a)(1), II(d)(1), and the mixture of II(b)(1) and II(c)(1), Stern-Volmer constants of about 30 M^−1 were observed. For these three stabilizers, high PPIX singlet quenching rate constants (about 5×10^9 M^−1 s^−1) but low triplet quenching rate constants (<10^9 M^−1 s^−1) were observed. Here, the singlet oxygen suppression is probably dominated by PPIX singlet excited state quenching by these stabilizers. […] Because of the very high PPIX triplet quenching rate constant by compound II(a)(1) (3.2×10^9 M^−1 s^−1), the singlet oxygen suppression is probably dominated by triplet quenching. […] These kinetic parameters may include the MePPIX triplet and singlet lifetimes in air saturated and oxygen free CDCl3 and the bimolecular quenching constant by oxygen.

[5] = Voltammetry, redox potential with respect to Ag/AgCl reference electrode; settings: vs Ag/AgCl; for second redox couple, oxidation peak: the small peak where two are given
Text: For these experiments, dimethylsulfoxide (DMSO) and tetrabutylammonium perchlorate (TBAP) were obtained from Sigma Aldrich and used as received. […] Platinum wires (BASi MW-1032) of diameter 0.5 mm were employed for both the working electrode (WE) and counter electrode (CE). A dry-solvent tolerant Ag/AgCl reference electrode (RE) was obtained from eDAQ (Model ET072). The WE and CE were cleaned prior to each by first rinsing in acetone, then DI, followed by soaking in ˜50% aqueous H2SO4 for 10-20 minutes and then a final DI rinse. The RE electrode was cleaned prior to each use by an acetone rinse followed by DI rinse. Each sample solution was prepared in a fresh glass vial which had been rinsed with DI then acetone and allowed to dry Immediately after preparing each solution, it was purged with pure N2 gas for 15-20 minutes with the electrodes in place. Voltammetry data was collected shortly afterwards with an EG&G PAR 263 A Potentiostant/Galvanostat operated using a Labview-based control program. Scans were performed at various potential ranges between +2.0V and −2.0V (vs Ag/AgCl); all scan rates were constant at 200 mV/s.

[6] = 0.01 M in 0.1 M TBAP in DMSO, 200 mV/s

fluorescence at room temperature ([3]; ethanol solution)	first (or only) redox couple, oxidation peak [5, 6]	first (or only) redox couple, reduction peak [5, 6]	first (or only) redox couple, redox potential ([5]; estimated from the peaks)	SMILES	bimolecular quenching rate constant for singlet excited state quenching (in words) ([1]; acetonitrile)	Singlet Quenching Rate Constant [1]	rate constant of PPIX singlet quenching using fluorescence quenching ([1]; acetonitrile)	quenching of protoporphyrin IX fluorescence (fluorescence lifetime) ([1]; acetonitrile, alkoxy crylene even at 0.1 M)	PPIX triplet quenching rate constant by laser flash photolysis [2]	Triplet Quenching Rate Constant [2]	luminescence maximum ([3]; ethanol matrix at 77 K)	rate constant from Stern-Volmer plot, if suppression entirely caused by triplet quenching ([4]; considering triplet lifetime ~1 μs in air saturated DMSO)	quenching rate constant from Stern-Volmer constant, if singlet excited state is quenched ([4]; using fluorescence lifetime 12.7 ns)	second redox couple, reduction peak [5, 6]	second redox couple, redox potential ([5]; estimated from the peaks)	second redox couple, oxidation peak [5]	PPIX triplet quenching (in words) ([2]; triplet decay at 440 nm)	luminescence quantum yield ([3]; ethanol matrix at 77 K)	Stern-Volmer Constant of ^1O2 Suppression [4]	second redox couple, oxidation peak (large) [5]
did not give detectable fluorescence	−560 mV	−757 mV	−658 mV	COC(=O)C(C#N)=C1c2ccccc2-c2ccccc21 [Formula I(a)(1)]	high quenching rate constant	5.3 10^9 M^−1s^−1	5.3e+09 M⁻¹ s⁻¹	significantly quenches	6.1e+06 M⁻¹ s⁻¹	0.0061 10^9 M^−1s^−1	575 nm	~3e+07 M⁻¹ s⁻¹	2.4e+09 M⁻¹ s⁻¹	−1297 mV	approximately −1199 mV	−1102 mV				
				COC(=O)C(C#N)=C1c2ccccc2C(=O)c2ccccc21 [Formula II(a)(1)]	high quenching rate constant	5.2 10^9 M^−1s^−1			3.2e+09 M⁻¹ s⁻¹	3.2 10^9 M^−1s^−1	492 nm			−1537 mV	−1501 mV	−1466 mV	most efficient quencher	less than 1%	240 M⁻¹	+430 mV
